pEC50: −log10 of the molar value. Read-outs that look alike come from different tables or passages of the source. Numbered stars: 1 amine (or outer) side, 2 acyl side, 3 side chain; on linkers, the order of the positions; unused ones are H or OH. Bridge positions count the residues as written; N and C are the ends. Square brackets hold non-standard residues; d marks the D form. Peptide text beside a SMILES is read from it. * marks the point of attachment. C20 diacid = O=C(O)CCCCCCCCCCCCCCCCCCC(=O)*; γGlu = O=C(O)[C@H](CCC(=O)[*:2])N[*:1]; NMeI = CC[C@H](C)[C@H](NC)C(=O)O; NMeA = CN[C@@H](C)C(=O)O; Sar = CNCC(=O)O
How the values were obtained:
[1] = molecular target: T1, human calcitonin receptor (hCTR2) (Homo sapiens, UniProt P30988); assay: hCTR2 assay: induction of cAMP (AlphaScreen cAMP Assay kit) in COS7 cells expressing hCTR2; type: cell-based
T1 construct: expressed in transfected cells
T1 sequence (P30988 25-474): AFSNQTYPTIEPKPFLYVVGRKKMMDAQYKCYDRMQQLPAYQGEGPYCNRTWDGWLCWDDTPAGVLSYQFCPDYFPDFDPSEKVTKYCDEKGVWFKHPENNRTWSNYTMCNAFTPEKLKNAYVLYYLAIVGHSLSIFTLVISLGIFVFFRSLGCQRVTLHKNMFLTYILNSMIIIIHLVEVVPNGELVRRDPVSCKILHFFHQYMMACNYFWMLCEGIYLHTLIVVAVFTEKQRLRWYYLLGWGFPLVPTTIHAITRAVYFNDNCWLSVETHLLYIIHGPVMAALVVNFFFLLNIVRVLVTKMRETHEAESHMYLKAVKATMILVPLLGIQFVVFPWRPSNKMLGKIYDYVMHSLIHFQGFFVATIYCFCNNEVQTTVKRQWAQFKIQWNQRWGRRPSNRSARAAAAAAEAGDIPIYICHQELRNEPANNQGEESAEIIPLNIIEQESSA
How it was run: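 Peptide-induced cAMP in hCTR2-expressing COS7 cells, 15 min at 37° C with phosphodiesterase inhibitor IBMX (100 µM), detected by AlphaScreen; potency from 4PL curves.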

[2] = Solubility assessment (turbidity absorbance at 325 nm); type: physicochemical; conditions: stock 2 mg/ml diluted 1:1, ambient temperature (typically 25°C), n=1; for Solubility, Acetate buffer pH 4: 100 mM acetate buffer pH 4.0; for Solubility, Acetate buffer pH 5: 100 mM acetate buffer pH 5.0; for Solubility, Histidine buffer pH 6: 100 mM histidine buffer pH 6.0; for Solubility, Histidine buffer pH 7: 100 mM histidine buffer pH 7.0; for Solubility, Phosphate buffer pH 6: 100 mM phosphate buffer pH 6.0; for Solubility, Phosphate buffer pH 7: 100 mM phosphate buffer pH 7.0; for Solubility, Phosphate buffer pH 7.5: 100 mM phosphate buffer pH7.5
How it was run: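 Turbidity read as absorbance at 325 nm (also 280 nm), single samples at ambient temperature (typically 25°C); ≤ 0.02 units counts as ≥ 1 mg/ml soluble. Samples made by 1:1 dilution of a 2 mg/ml acidic stock into 100 mM acetate, histidine or phosphate buffers, pH 4.0–7.5.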

[3] = cAMP induction in COS7 cells expressing hCTR2, average of a minimum of 3 determinations, read-out: hCTR2 EC50

Solubility, Acetate buffer pH 4 [2] | Solubility, Acetate buffer pH 5 [2] | Solubility, Histidine buffer pH 6 [2] | Solubility, Histidine buffer pH 7 [2] | Solubility, Phosphate buffer pH 6 [2] | Solubility, Phosphate buffer pH 7 [2] | Solubility, Phosphate buffer pH 7.5 [2] | pEC50 [1, 3] | SMILES | pEC50 [1]
II (II indicates solubility ≤ 1 mg/ml) | II (II indicates solubility ≤ 1 mg/ml) | II (II indicates solubility ≤ 1 mg/ml) | II (II indicates solubility ≤ 1 mg/ml) | II (II indicates solubility ≤ 1 mg/ml) | II (II indicates solubility ≤ 1 mg/ml) | II (II indicates solubility ≤ 1 mg/ml) | 10.12 | CC[C@H](C)[C@@H](C(=O)N[C@@H](CO)C(=O)N[C@@H](CO)C(=O)N[C@H](C(=O)N[C@@H](CC(N)=O)C(=O)N[C@H](C(=O)NCC(=O)N[C@@H](CO)C(=O)N[C@@H](CC(N)=O)C(=O)N[C@H](C(=O)N1CCC[C@H]1C(N)=O)[C@@H](C)O)C(C)C)[C@@H](C)O)N(C)C(=O)CN(C)C(=O)[C@H](Cc1ccccc1)NC(=O)[C@H](CC(N)=O)NC(=O)[C@H](CC(N)=O)NC(=O)[C@H](CO)NC(=O)[C@H](CO)NC(=O)[C@H](Cc1c[nH]cn1)NC(=O)[C@H](Cc1c[nH]cn1)NC(=O)[C@H](CC(C)C)NC(=O)[C@H](Cc1ccccc1)NC(=O)[C@H](CCC(=O)O)NC(=O)[C@H](C)NC(=O)[C@H](CC(C)C)NC(=O)[C@H](CCCNC(=N)N)NC(=O)[C@H](CCC(N)=O)NC(=O)[C@@H](NC(=O)[C@H](C)NC(=O)[C@@H]1CSSC[C@H](NC(=O)[C@H](CCCNC(=N)N)NC(=O)CC[C@H](NC(=O)CCCCCCCCCCCCCCCCCCC(=O)O)C(=O)O)C(=O)N[C@@H](CC(N)=O)C(=O)N[C@@H]([C@@H](C)O)C(=O)N[C@@H](C)C(=O)N[C@@H]([C@@H](C)O)C(=O)N1)[C@@H](C)O [Compound 55, [19CD]-isoGlu-RC()NTATC()ATQRLAEFLHHSSNNF-Gly(Me)-Ile(Me)-SSTNVGSNTP-NH2] ({C20 diacid-γGlu}-RCNTATCATQRLAEFLHHSSNNF[Sar][NMeI]SSTNVGSNTP-NH2; disulfide 2-7) | 
SS (SS indicates solubility ≥ 1mg/ml) | II (II indicates solubility ≤ 1 mg/ml) | II (II indicates solubility ≤ 1 mg/ml) | II (II indicates solubility ≤ 1 mg/ml) | II (II indicates solubility ≤ 1 mg/ml) | II (II indicates solubility ≤ 1 mg/ml) | II (II indicates solubility ≤ 1 mg/ml) | 9.85 | CC[C@H](C)[C@@H](C(=O)N[C@@H](CC(C)C)C(=O)N[C@@H](CO)C(=O)N[C@@H](CO)C(=O)N[C@H](C(=O)N[C@@H](CC(N)=O)C(=O)N[C@H](C(=O)NCC(=O)N[C@@H](CO)C(=O)N[C@@H](CC(N)=O)C(=O)N[C@H](C(=O)N1CCC[C@H]1C(N)=O)[C@@H](C)O)C(C)C)[C@@H](C)O)N(C)C(=O)[C@H](C)NC(=O)[C@H](C)N(C)C(=O)[C@H](Cc1ccccc1)NC(=O)[C@H](CC(N)=O)NC(=O)[C@H](CC(N)=O)NC(=O)[C@H](CO)NC(=O)[C@H](CO)NC(=O)[C@H](Cc1c[nH]cn1)NC(=O)[C@H](Cc1c[nH]cn1)NC(=O)[C@H](CC(C)C)NC(=O)[C@H](Cc1ccccc1)NC(=O)[C@H](CCC(=O)O)NC(=O)[C@H](C)NC(=O)[C@H](CC(C)C)NC(=O)[C@H](CCCNC(=N)N)NC(=O)[C@H](CCC(N)=O)NC(=O)[C@@H](NC(=O)[C@H](C)NC(=O)[C@@H]1CSSC[C@H](NC(=O)[C@H](CCCNC(=N)N)NC(=O)CC[C@H](NC(=O)CCCCCCCCCCCCCCCCCCC(=O)O)C(=O)O)C(=O)N[C@@H](CC(N)=O)C(=O)N[C@@H]([C@@H](C)O)C(=O)N[C@@H](C)C(=O)N[C@@H]([C@@H](C)O)C(=O)N1)[C@@H](C)O [Compound 56, [19CD]-isoGlu-RC()NTATC()ATQRLAEFLHHSSNNF-Ala(Me)-A-Ile(Me)-LSSTNVGSNTP-NH2] ({C20 diacid-γGlu}-RCNTATCATQRLAEFLHHSSNNF[NMeA]A[NMeI]LSSTNVGSNTP-NH2; disulfide 2-7) | 
SS (SS indicates solubility ≥ 1mg/ml) | SS (SS indicates solubility ≥ 1mg/ml) | SS (SS indicates solubility ≥ 1mg/ml) | SS (SS indicates solubility ≥ 1mg/ml) | SS (SS indicates solubility ≥ 1mg/ml) | II (II indicates solubility ≤ 1 mg/ml) | SS (SS indicates solubility ≥ 1mg/ml) | 9.96 | CC[C@H](C)[C@@H](C(=O)N[C@@H](CC(C)C)C(=O)N[C@@H](CO)C(=O)N[C@@H](CO)C(=O)N[C@H](C(=O)N[C@@H](CC(N)=O)C(=O)N[C@H](C(=O)NCC(=O)N[C@@H](CO)C(=O)N[C@@H](CC(N)=O)C(=O)N[C@H](C(=O)N1CCC[C@H]1C(N)=O)[C@@H](C)O)C(C)C)[C@@H](C)O)N(C)C(=O)CN(C)C(=O)[C@H](Cc1ccccc1)NC(=O)[C@H](CC(N)=O)NC(=O)[C@H](CC(N)=O)NC(=O)[C@H](CO)NC(=O)[C@H](CO)NC(=O)[C@H](CCCNC(=N)N)NC(=O)[C@H](Cc1c[nH]cn1)NC(=O)[C@H](CC(C)C)NC(=O)[C@H](Cc1ccccc1)NC(=O)[C@H](CCC(=O)O)NC(=O)[C@H](C)NC(=O)[C@H](CC(C)C)NC(=O)[C@H](CCCNC(=N)N)NC(=O)[C@H](CCC(N)=O)NC(=O)[C@@H](NC(=O)[C@H](C)NC(=O)[C@@H]1CSSC[C@H](NC(=O)[C@H](CCCCN)NC(=O)CC[C@H](NC(=O)CCCCCCCCCCCCCCCCCCC(=O)O)C(=O)O)C(=O)N[C@@H](CC(N)=O)C(=O)N[C@@H]([C@@H](C)O)C(=O)N[C@@H](C)C(=O)N[C@@H]([C@@H](C)O)C(=O)N1)[C@@H](C)O [Compound 58, [19CD]-isoGlu-KC()NTATC()ATQRLAEFLHRSSNNF-Gly(Me)-Ile(Me)-LSSTNVGSNTP-NH2] ({C20 diacid-γGlu}-KCNTATCATQRLAEFLHRSSNNF[Sar][NMeI]LSSTNVGSNTP-NH2; disulfide 2-7) | 

SMILES | Solubility, Acetate buffer pH 4 [2] | Solubility, Acetate buffer pH 5 [2] | Solubility, Histidine buffer pH 6 [2] | Solubility, Histidine buffer pH 7 [2] | Solubility, Phosphate buffer pH 6 [2] | Solubility, Phosphate buffer pH 7 [2] | Solubility, Phosphate buffer pH 7.5 [2] | pEC50 [1, 3] | pEC50 [1]
CC[C@H](C)[C@@H](C(=O)N[C@@H](CO)C(=O)N[C@@H](CO)C(=O)N[C@H](C(=O)N[C@@H](CC(N)=O)C(=O)N[C@H](C(=O)NCC(=O)N[C@@H](CO)C(=O)N[C@@H](CC(N)=O)C(=O)N[C@H](C(=O)N1CCC[C@H]1C(N)=O)[C@@H](C)O)C(C)C)[C@@H](C)O)N(C)C(=O)[C@H](C)NC(=O)CN(C)C(=O)[C@H](Cc1ccccc1)NC(=O)[C@H](CC(N)=O)NC(=O)[C@H](CC(N)=O)NC(=O)[C@H](CO)NC(=O)[C@H](CO)NC(=O)[C@H](Cc1c[nH]cn1)NC(=O)[C@H](Cc1c[nH]cn1)NC(=O)[C@H](CC(C)C)NC(=O)[C@H](Cc1ccccc1)NC(=O)[C@H](CCC(=O)O)NC(=O)[C@H](C)NC(=O)[C@H](CC(C)C)NC(=O)[C@H](CCCNC(=N)N)NC(=O)[C@H](CCC(N)=O)NC(=O)[C@@H](NC(=O)[C@H](C)NC(=O)[C@@H]1CSSC[C@H](NC(=O)[C@H](CCCNC(=N)N)NC(=O)CC[C@H](NC(=O)CCCCCCCCCCCCCCCCCCC(=O)O)C(=O)O)C(=O)N[C@@H](CC(N)=O)C(=O)N[C@@H]([C@@H](C)O)C(=O)N[C@@H](C)C(=O)N[C@@H]([C@@H](C)O)C(=O)N1)[C@@H](C)O [Compound 54, [19CD]-isoGlu-RC()NTATC()ATQRLAEFLHHSSNNF-Gly(Me)-A-Ile(Me)-SSTNVGSNTP-NH2] ({C20 diacid-γGlu}-RCNTATCATQRLAEFLHHSSNNF[Sar]A[NMeI]SSTNVGSNTP-NH2; disulfide 2-7) | SS (SS indicates solubility ≥ 1mg/ml) | SS (SS indicates solubility ≥ 1mg/ml) | SS (SS indicates solubility ≥ 1mg/ml) | SS (SS indicates solubility ≥ 1mg/ml) | SS (SS indicates solubility ≥ 1mg/ml) | SS (SS indicates solubility ≥ 1mg/ml) | SS (SS indicates solubility ≥ 1mg/ml) |  | 10.04

From EP3046573B1, “AMYLIN ANALOGUES” (Zealand Pharma A/S, priority 2013, dated 2015)
